Measured values taken from patent US20120083522A1, “MODULATION OF INFLAMMATORY RESPONSES BY FACTOR XI” (Isis Pharmaceuitcals, inc., priority 2009, published 2012).
In the oligonucleotide strings, read from the 5' end, every base follows the letter of its sugar. An asterisk marks phosphorothioate; unmarked linkages are phosphodiester. Other units and linkages are bracketed, terminal groups are in braces. A string of capitals states the bases alone. e = 2'-O-(2-methoxyethyl) (MOE); [5mC] = 5-methylcytosine; d = 2'-deoxy (DNA)

Columns and labels:
Assay type in all cases: cell-based
human Factor XI mRNA [1] = experiment: Dose-dependent inhibition in HepG2 cells, electroporation (Example 4); settings: 16 hours
Procedure: (§1) The gapmers were also transfected via electroporation and their dose dependent inhibition of human Factor XI mRNA was measured. Cells were plated at a density of 20,000 cells per well and transfected via electroporation with 0.7 μM, 2.2 μM, 6.7 μM, and 20 μM concentrations of antisense oligonucleotide, as specified in Table 10. After a treatment period of approximately 16 hours, RNA was isolated from the cells and Factor XI mRNA levels were measured by quantitative real-time PCR. Human Factor XI primer probe set RTS 2966 was used to measure mRNA levels. Factor XI mRNA levels were adjusted according to total RNA content, as measured by RIBOGREEN®. Results are presented as percent inhibition of Factor XI, relative to untreated control cells.

human Factor XI mRNA [2] = experiment: Antisense inhibition in HepG2 cells by microwalk gapmers, 75 nM, lipofectin (Example 3); settings: HepG2 cells, 75 nM
In short: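 HepG2 cells (10,000 per well) were transfected with 75 nM gapmer using lipofectin and treated for about 24 h. Factor XI mRNA was quantified by real-time PCR, normalized to RiboGreen total RNA and expressed as percent inhibition versus untreated controls.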

human Factor XI mRNA [3] = experiment: Dose-dependent inhibition in HepG2 cells, lipofectin (Example 4); settings: 16 hours
Procedure: as §1, with “Cells” for “The gapmers were also transfected via electroporation and their dose dependent inhibition of human Factor XI mRNA was measured. Cells”, “10,000” for “20,000”, “using lipofectin reagent” for “via electroporation”, “9.375 nM, 18.75 nM, 37.5 nM” for “0.7 μM, 2.2 μM, 6.7 μM,”, “75 nM” for “20 μM”, “9.” for “10.”

[4] = oligonucleotides targeted to nucleobases 1275 to 1318 of SEQ ID NO: 1
[5] = oligonucleotides targeted to nucleobases 1018 to 1042 of SEQ ID NO: 1
[6] = oligonucleotides targeted to nucleobases 1062 to 1091 of SEQ ID NO: 1

Row | Substance | percent inhibition of Factor XI mRNA, relative to untreated control cells (human Factor XI mRNA [1]; 0.7 μM) [%] | percent inhibition of Factor XI mRNA, relative to untreated control cells (human Factor XI mRNA [1]; 2.2 μM) [%] | percent inhibition of Factor XI mRNA, relative to untreated control cells (human Factor XI mRNA [1]; 6.7 μM) [%] | percent inhibition of Factor XI mRNA, relative to untreated control cells (human Factor XI mRNA [1]; 20 μM) [%] | % inhibition of human Factor XI mRNA levels (human Factor XI mRNA [2]; [4]) [%] | percent inhibition of Factor XI mRNA, relative to untreated control cells (human Factor XI mRNA [3]; 9.375 nM) [%] | percent inhibition of Factor XI mRNA, relative to untreated control cells (human Factor XI mRNA [3]; 18.75 nM) [%] | percent inhibition of Factor XI mRNA, relative to untreated control cells (human Factor XI mRNA [3]; 37.5 nM) [%] | percent inhibition of Factor XI mRNA, relative to untreated control cells (human Factor XI mRNA [3]; 75 nM) [%] | % inhibition of human Factor XI mRNA levels (human Factor XI mRNA [2]; [5]) [%] | % inhibition of human Factor XI mRNA levels (human Factor XI mRNA [2]; [6]) [%]
1 | 416924 (antisense eG*eT*eG*d[5mC]*dA*d[5mC]*dA*dG*dT*dT*dT*d[5mC]*dT*dG*dG*d[5mC]*dA*eG*eG*e[5mC]) [compound 416924] | 22 | 40 | 63 | 70 | 97 | 25 | 38 | 56 | 59 | – | –
2 | 416926 (antisense eT*eG*eG*dT*dG*d[5mC]*dA*d[5mC]*dA*dG*dT*dT*dT*d[5mC]*dT*dG*dG*e[5mC]*eA*eG) [compound 416926] | 47 | 71 | 91 | 94 | 93 | 31 | 43 | 63 | 82 | – | –
3 | 416931 (antisense eG*eG*e[5mC]*dA*dT*dT*dG*dG*dT*dG*d[5mC]*dA*d[5mC]*dA*dG*dT*dT*eT*e[5mC]*eT) [compound 416931] | 7 | 24 | 60 | 82 | 96 | 44 | 39 | 57 | 71 | – | –
4 | 416941 (antisense eG*eG*e[5mC]*dA*dG*d[5mC]*dG*dG*dA*d[5mC]*dG*dG*d[5mC]*dA*dT*dT*dG*eG*eT*eG) [compound 416941] | 16 | 38 | 79 | 89 | 95 | 33 | 54 | 63 | 78 | – | –
5 | 416984 (antisense e[5mC]*eA*dA*d[5mC]*d[5mC]*dG*dG*dG*dA*dT*dG*dA*dT*dG*dA*eG*eT*eG*e[5mC]*eA) [compound 416984] | 43 | 54 | 88 | 90 | – | 26 | 50 | 62 | 81 | 89 | –
6 | 416985 (antisense eG*e[5mC]*dA*dA*d[5mC]*d[5mC]*dG*dG*dG*dA*dT*dG*dA*dT*dG*eA*eG*eT*eG*e[5mC]) [compound 416985] | 12 | 48 | 45 | 69 | – | 17 | 30 | 47 | 57 | 88 | –
7 | 416989 (antisense eG*eA*dG*dA*dT*dT*d[5mC]*dT*dT*dT*dG*dG*dG*d[5mC]*d[5mC]*eA*eT*eT*e[5mC]*e[5mC]) [compound 416989] | 32 | 65 | 88 | 94 | – | 18 | 41 | 62 | 83 | – | 88
8 | 416993 (antisense e[5mC]*eT*dT*dT*dG*dA*dG*dA*dT*dT*d[5mC]*dT*dT*dT*dG*eG*eG*e[5mC]*e[5mC]*eA) [compound 416993] | 22 | 48 | 87 | 92 | – | 15 | 37 | 50 | 68 | – | 91
9 | 417000 (antisense eT*eG*d[5mC]*dA*d[5mC]*dA*dG*dT*dT*dT*d[5mC]*dT*dG*dG*d[5mC]*eA*eG*eG*e[5mC]*e[5mC]) [compound 417000] | 46 | 73 | 76 | 89 | 89 | 35 | 47 | 58 | 70 | – | –
